Test results published in US20220370471A1, “COMPOSITION AND METHOD FOR TREATMENT OF HIPPOCAMPAL SYNAPSE DYSFUNCTION AND COGNITIVE DEFICITS IN ALZHEIMER'S DISEASE” (BOARD OF REGENTS, THE UNIVERSITY OF TEXAS SYSTEM, priority 2019, published 2022).
One block for each molecule: values may come before it. Square brackets hold non-standard residues; d marks the D form. Ends that are not written are not given here. Peptide text beside a SMILES is read from it. d2Nal = N[C@H](Cc1ccc2ccccc2c1)C(=O)O; Aib = CC(C)(N)C(=O)O

Assays:
hippocampal neurons = experiment: Synaptic density (vGLUT1/PSD95) in cultured hippocampal neurons; type: cell-based, mouse; details: for Aβ-induced synaptic loss / synaptic density / synaptogenic effect, agonist alone: 1 μM ipamorelin or capromorelin; for Aβ-induced synaptic loss / synaptic density: alone or + 2 μM SKF81297
Method: Immunocytochemistry. […] NIS element software was used for image analysis. “Objective Count” dialog was used for intensity measurement. […] The overlapped dots represent synapses.
Primary hippocampal neuron culture. Hippocampal neuron cultures were prepared as previously described (15). In brief, mouse hippocampi were dissected from postnatal day 0-1 pups in cold HBSS. Cells were dissociated by using 0.025% trypsin at 37° C. for 15 minutes, followed by 10 times homogenization in ice cold DMEM. Dissociated cells were then passed through a 100 μm cell strainer (Corning) and centrifuged for 5 minutes at 210×g. The pellet was gently resuspended in neuron culture medium (Neurobasal A with 2% B27 supplement, 0.5 mM L-glutamine, Invitrogen) and plated on poly-D-lysine (Sigma-Aldrich) coated Lab-Tek chamber slides (Nunc, 177445) with appropriate densities.
Agonist treatment on primary cultured neurons. At 14 days in vitro (DIV14) hippocampal neurons were exposed to the synthetic growth hormone secretagogue receptor agonist MK0677 (Tocris, #5272, 1.5 μM) the dopamine D1-like receptor agonist SKF81297 (Sigma-Aldrich, #S143, 2 μM) or a mixture of MK0677 and SKF81297 for 5 minutes. The exposure was followed by immunostaining to examine the effects of Ghsr1α/Drd1 co-activation on Aβ induced synaptic loss or Ghsr1α/Drd1, Aβ/Ghsr1α interaction as described in previous sections.

Ghsr1α/Drd1 complex = biological target: T1, Ghsr1α/Drd1 complex (Mus musculus, UniProt Q61616+Q99P50); experiment: Duolink PLA of Ghsr1α/Drd1 complex in cultured hippocampal neurons; type: cell-based; details: oligomeric Aβ42 1 μM, 24 hours; 1.5 μM MK0677, 2 μM SKF81297, or in combination
T1 construct: endogenous in cells; host or cells: primary mouse hippocampal neurons (P0-1, DIV14)
Excerpt: (§1) Duolink In Situ Proximity Ligation Assay (PLA). […] PLA analysis was referred to previous report (66 67). NIH Image J was used for PLA signal quantification.
(§2) Agonist treatment on primary cultured neurons. […] The exposure was followed by immunostaining to examine the effects of Ghsr1α/Drd1 co-activation on Aβ induced synaptic loss or Ghsr1α/Drd1, Aβ/Ghsr1α interaction as described in previous sections.

Aβ/Ghsr1α complex = biological target: T2, Aβ/Ghsr1α complex (Mus musculus, UniProt Q99P50); experiment: Duolink PLA of Aβ/Ghsr1α complex in cultured hippocampal neurons; type: cell-based; details: oligomeric Aβ42 1 μM, 24 hours; 1.5 μM MK0677, 2 μM SKF81297, or in combination
T2 construct: endogenous in cells; host or cells: primary mouse hippocampal neurons; Aβ42 peptide purchased (GenicBio, A-43-T-1000)
Excerpt: as §1, §2

[1] = tested on: hippocampal CA3-CA1 pathway; experiment: Long-term potentiation (fEPSP) in hippocampal slices; details: MK0677 1.5 μM, SKF81297 2 μM, alone or in combination
Method: For electrophysiological experiments, mice were anesthetized with isoflurane and decapitated. […] Slices were allowed to rest for 30 minutes after being transferred to the recording chamber before recordings began. Recordings of local field potentials (LFPs) were performed on an Axon Multiclamp 700B amplifier (Molecular Devices), and data were acquired and analyzed using AxoGraph X (AxoGraph Scientific). A tungsten concentric bipolar microelectrode (World Precision Instruments), and a recording glass electrode (1.5 MS2) filled with recording ACSF, were placed approximately 200 μm apart in the Schaffer collateral-commissural pathway in the CA1 region of the hippocampus. Pulses were delivered in 30 seconds intervals. Before baseline recordings commenced, input-output curves were taken, using 25-150 μA stimulation currents in 25 μA steps. Three sweeps were sampled at each stimulation intensity and averaged to represent the voltage response at each step. Recordings of baseline responses lasted for at least 40 minutes. Stimulation intensity was set to approximately 40% of the minimum intensity required to evoke the maximum response (based on the input-output curve). The stimulation intensity was kept consistent throughout the duration of the experiment. […] LTP was induced using a theta burst stimulation (TBS) protocol consisting of 10 bursts (5 pulses at 100 Hz) repeated at 5 Hz delivered two times 30 seconds apart. After LTP induction, LFPs were recorded for an additional 60 minutes. The slope of the field excitatory postsynaptic potential (fEPSP) was measured in Axograph scientific software and sweeps were averaged in bins of 5 for both the baseline and post LTP induction periods. Changes in LFPs are expressed as percentage change from the averaged baseline values.

DRD1 [2] = biological target: DRD1 (Homo sapiens, UniProt P21728); details: cited from earlier work
Ghsr1α = biological target: T3, Ghsr1α (Mus musculus, UniProt Q99P50, INS247CCPGCC); experiment: FlAsH-based FRET assay of Ghsr1α activity in HEK 293T cells; type: cell-based; details: oligomeric Aβ42 2 μM, 5 minutes pre-incubation
T3 construct: Mouse full length Ghsr1α cDNA (NCBI Gene ID: 208188) was purchased from OriGene (MR226073); expressed in transfected cells; host or cells: HEK 293T
Excerpt: FlAsH-based FRET was created by structural dynamics of Ghsr1α with FlAsH in the intercellular loop 3 and enhanced cyan fluorescent protein (ECFP) in the C-terminus (Ghsr1α^FlAsH/ECFP).
FlAsH-based FRET. […] The CCPGCC motif which has higher binding affinity for FlAsH was inserted in the third intracellular loop between Va1247 and Gly248 of Ghsr1α cDNA or between Thr245 and Gly246 of Drd1 cDNA. […] Fluorescence signals were monitored on microplate reader (BioTek Cytation 5) before and after the treatments. […] Area scanning read mode was used to correct artificial inaccuracies. The FRET ratio (FFlAsH/FECFP) was calculated according to equation as previously reported (69):
The terms a and b are correction factors for the two leakages mentioned above. a is the ratio of the direct emission of donor, ECFP at 535 nm, to its emission at 475 nm when excited at 425 nm which was calculated with cells transfected with pcDNA3-Ghsr1α^FlAsH/ECFP or pcDNA3-Drd1^FlAsH/ECFP only. b is the ratio of the direct emission of FlAsH at 535 nm when excited at 425 nm to its emission at 535 nm when excited at 500 nm which was calculated with FlAsH labeled untransfected cells.

Drd1 [3] = biological target: T4, Drd1 (Mus musculus, UniProt Q61616, INS245CCPGCC); experiment: FlAsH-based FRET assay of Drd1 activity in HEK 293T cells; type: cell-based; details: oligomeric Aβ42 2 μM preincubation; SKF81297 100 μM
T4 construct: expressed in transfected cells; host or cells: HEK 293T
Method: GHSR1α forms a complex with DRD1 to regulate DRD 1-mediated hippocampal synaptic strength and memory (8). In order to fully evaluate the influence of Aβ on GHSR1α, the inventor next examined whether oligomeric Aβ42 affects heterodimerization of GHSR1α and DRD1 by using HEK 293T cells co-expressing Ghsr1α and Drd1 (FIG. 2c, FIG. S2). After an incubation with oligomeric Aβ42 (5 μM) for 24 hours, the interaction between Ghsr1α and Drd1 determined by Duolink PLA was suppressed (FIGS. 2d-e), indicating the inhibitory effect of oligomeric Aβ42 on Ghsr1α/Drd1 heterodimerization. To test whether GHSR1α/DRD1 interaction was modulated in a clinical setting, the inventor examined hippocampal tissues from 5 patients with AD and compared with tissues from 5 healthy controls. […] Decreased Ghsr1α/Drd1 heterodimerization also occurred in 5×FAD mice, and this effect was exacerbated with age (FIGS. 2h-i). […]
FlAsH-based FRET. […] Fluorescence signals were monitored on microplate reader (BioTek Cytation 5) before and after the treatments. […] Area scanning read mode was used to correct artificial inaccuracies. The FRET ratio (FFlAsH/FECFP) was calculated according to equation as previously reported (69): […]

Ghsr1α/Drd1 = biological target: T5, Ghsr1α/Drd1 (Mus musculus, UniProt Q99P50); experiment: Duolink PLA of Ghsr1α/Drd1 interaction in co-expressing HEK 293T cells; type: cell-based; details: oligomeric Aβ42 5 μM, 24 hours
T5 construct: Mouse full length Ghsr1α cDNA (NCBI Gene ID: 208188) was purchased from OriGene (MR226073); expressed in transfected cells; host or cells: HEK 293T
Method: GHSR1α forms a complex with DRD1 to regulate DRD 1-mediated hippocampal synaptic strength and memory (8). In order to fully evaluate the influence of Aβ on GHSR1α, the inventor next examined whether oligomeric Aβ42 affects heterodimerization of GHSR1α and DRD1 by using HEK 293T cells co-expressing Ghsr1α and Drd1 (FIG. 2c, FIG. S2). After an incubation with oligomeric Aβ42 (5 μM) for 24 hours, the interaction between Ghsr1α and Drd1 determined by Duolink PLA was suppressed (FIGS. 2d-e), indicating the inhibitory effect of oligomeric Aβ42 on Ghsr1α/Drd1 heterodimerization. To test whether GHSR1α/DRD1 interaction was modulated in a clinical setting, the inventor examined hippocampal tissues from 5 patients with AD and compared with tissues from 5 healthy controls. […] Decreased Ghsr1α/Drd1 heterodimerization also occurred in 5×FAD mice, and this effect was exacerbated with age (FIGS. 2h-i). […] FlAsH-based FRET assay was performed to examine the effect of oligomeric Aβ42 ([…]) on agonist (SKF81297 100 μM)-induced Drd1 activity in HEK 293T cells expressing Drd1 with FlAsH in the intercellular loop 3 and ECFP in the C-terminus (Drd1^FlAsH/ECFP). […]
(§3) Duolink In Situ Proximity Ligation Assay (PLA). […] NIH Image J was used for PLA signal quantification. […]

Ghsr1α Δaa42-116 = biological target: T6, Ghsr1α Δaa42-116 (Mus musculus, UniProt Q99P50, DEL42-116); experiment: Duolink PLA and Co-IP of oligomeric Aβ42 with Ghsr1α mutants in HEK 293T cells; type: binding; details: 5 μM oligomeric Aβ42, 24 hours; Duolink PLA, validated by Co-IP
T6 construct: Mouse full length Ghsr1α cDNA (NCBI Gene ID: 208188) was purchased from OriGene (MR226073); expressed in transfected cells; host or cells: HEK 293T
Excerpt: Aβ3 physically interacts with GHSR1α. To determine whether GHSR1α expression is changed in the hippocampus in AD, the inventor performed immunohistochemical and membrane blotting assays in post-mortem hippocampal tissues from 4 subjects with AD and 4 non-demented healthy donors (non-AD). He observed increased GHSR1α expression in hippocampal tissues from patients with AD (FIGS. S1a-b and Table S1), which positively correlated with the amounts of soluble Aβ40 and Aβ42 in hippocampi (FIGS. S1c-d). […] Because Aβ binds to multiple proteins (14-16), the inventor next explored whether GHSR1α is an Aβ binding target. In order to examine the interaction between GHSR1α and AP, he labeled GHSR1α and Aβ with their specific antibodies and ran Duolink proximity ligation assay (PLA), which is a sensitive method to visualize and quantify direct protein interactions in situ (17), on hippocampal tissues from 4 subjects with AD and 4 healthy donors. The inventor observed Aβ3/GHSR1α complexes in hippocampi from patients with AD (FIGS. 1a-b). […] HEK 293T cells expressing full-length mouse Ghsr1α or its mutants were exposed to 5 μM oligomeric Aβ42 for 24 hours followed by Duolink PLA to detect Aβ/Ghsr1α complexes. […]
as §3

Drd1 [4] = biological target: T7, Drd1 (Mus musculus, UniProt Q61616); experiment: Duolink PLA and Co-IP of oligomeric Aβ42 with Drd1 in HEK 293T cells; type: binding; details: oligomeric Aβ42 24 hours, Drd1-expressing HEK 293T cells
T7 construct: expressed in transfected cells; host or cells: HEK 293T

5×FAD mice = details: systemic ghrelin treatment; cited from earlier work

T3 sequence (Q99P50 with tags, fused parts or gaps INS247CCPGCC): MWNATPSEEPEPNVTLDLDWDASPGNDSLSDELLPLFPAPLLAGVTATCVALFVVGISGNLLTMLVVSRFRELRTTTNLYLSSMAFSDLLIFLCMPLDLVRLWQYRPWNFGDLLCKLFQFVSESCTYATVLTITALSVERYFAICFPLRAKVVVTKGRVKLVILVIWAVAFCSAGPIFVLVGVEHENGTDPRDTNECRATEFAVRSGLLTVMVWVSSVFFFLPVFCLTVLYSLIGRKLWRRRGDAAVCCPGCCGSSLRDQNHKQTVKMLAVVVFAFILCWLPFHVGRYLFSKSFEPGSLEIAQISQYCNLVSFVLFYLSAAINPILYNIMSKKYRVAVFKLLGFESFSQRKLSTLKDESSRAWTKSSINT
Sequence of DRD1 (P21728 whole entry, species assumed): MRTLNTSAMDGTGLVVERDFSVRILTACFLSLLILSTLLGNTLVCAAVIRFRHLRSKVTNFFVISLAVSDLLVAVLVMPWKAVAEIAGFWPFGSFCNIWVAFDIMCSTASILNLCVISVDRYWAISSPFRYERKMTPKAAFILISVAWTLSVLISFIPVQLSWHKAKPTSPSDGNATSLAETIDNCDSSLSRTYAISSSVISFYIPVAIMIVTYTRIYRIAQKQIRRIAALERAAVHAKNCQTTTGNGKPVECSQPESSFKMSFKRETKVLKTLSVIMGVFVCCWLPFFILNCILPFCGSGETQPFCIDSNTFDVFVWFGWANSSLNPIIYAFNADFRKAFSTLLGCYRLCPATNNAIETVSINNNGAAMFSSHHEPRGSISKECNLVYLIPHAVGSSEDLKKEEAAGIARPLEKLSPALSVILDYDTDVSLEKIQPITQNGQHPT
T5 sequence (Q99P50 whole entry): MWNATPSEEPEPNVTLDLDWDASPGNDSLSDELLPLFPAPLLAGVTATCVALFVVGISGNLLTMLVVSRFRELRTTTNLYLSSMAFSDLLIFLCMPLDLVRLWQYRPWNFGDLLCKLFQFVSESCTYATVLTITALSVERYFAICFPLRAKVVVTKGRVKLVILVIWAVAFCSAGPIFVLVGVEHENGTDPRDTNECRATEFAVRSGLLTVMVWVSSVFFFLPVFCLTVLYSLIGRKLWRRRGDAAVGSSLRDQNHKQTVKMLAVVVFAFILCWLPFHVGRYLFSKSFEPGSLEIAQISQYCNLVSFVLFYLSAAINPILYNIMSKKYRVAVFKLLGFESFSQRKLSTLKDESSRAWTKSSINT
T1 sequence (Q99P50 whole entry): as above
T1 sequence (Q61616 whole entry): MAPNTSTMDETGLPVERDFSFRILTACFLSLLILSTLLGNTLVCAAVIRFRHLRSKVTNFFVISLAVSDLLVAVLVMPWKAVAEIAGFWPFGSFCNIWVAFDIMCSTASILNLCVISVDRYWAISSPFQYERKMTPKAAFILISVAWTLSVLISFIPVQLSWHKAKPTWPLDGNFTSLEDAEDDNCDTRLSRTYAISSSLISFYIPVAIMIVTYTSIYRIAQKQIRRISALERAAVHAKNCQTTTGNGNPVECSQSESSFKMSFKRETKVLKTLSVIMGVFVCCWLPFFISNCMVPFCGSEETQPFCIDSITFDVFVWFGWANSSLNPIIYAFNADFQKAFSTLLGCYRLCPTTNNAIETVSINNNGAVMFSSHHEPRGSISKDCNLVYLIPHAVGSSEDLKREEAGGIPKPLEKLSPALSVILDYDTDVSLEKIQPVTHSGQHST
T2 sequence (Q99P50 whole entry): as the sequence (Q99P50 whole entry) above
T2 sequence (Q61616 whole entry, further chain): as the sequence (Q61616 whole entry) above
T4 sequence (Q61616 with tags, fused parts or gaps INS245CCPGCC): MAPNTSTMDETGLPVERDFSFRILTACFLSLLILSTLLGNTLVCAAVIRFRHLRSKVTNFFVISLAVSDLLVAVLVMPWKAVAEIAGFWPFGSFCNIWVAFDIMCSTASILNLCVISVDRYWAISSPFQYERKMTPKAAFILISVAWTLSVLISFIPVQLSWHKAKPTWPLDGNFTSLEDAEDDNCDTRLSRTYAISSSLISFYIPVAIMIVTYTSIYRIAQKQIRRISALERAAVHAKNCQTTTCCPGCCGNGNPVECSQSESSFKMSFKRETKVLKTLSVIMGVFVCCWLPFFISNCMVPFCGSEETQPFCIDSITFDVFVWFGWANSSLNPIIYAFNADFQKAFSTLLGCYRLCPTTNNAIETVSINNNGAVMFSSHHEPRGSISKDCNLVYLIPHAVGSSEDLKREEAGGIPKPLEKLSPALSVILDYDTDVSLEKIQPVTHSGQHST
T6 sequence (Q99P50 with tags, fused parts or gaps DEL42-116): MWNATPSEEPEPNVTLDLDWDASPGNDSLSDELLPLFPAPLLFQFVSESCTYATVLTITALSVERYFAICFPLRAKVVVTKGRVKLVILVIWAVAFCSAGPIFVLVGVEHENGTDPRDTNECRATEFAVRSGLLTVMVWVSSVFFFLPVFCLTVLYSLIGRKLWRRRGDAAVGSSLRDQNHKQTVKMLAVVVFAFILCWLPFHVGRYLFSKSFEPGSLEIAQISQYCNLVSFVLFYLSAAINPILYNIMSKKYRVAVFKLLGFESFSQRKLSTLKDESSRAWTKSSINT
T7 sequence (Q61616 whole entry): as the sequence (Q61616 whole entry) above

Molecule: Oc1cc2c(c(Cl)c1O)CCNCC2c1ccccc1 (stereo not shown) [SKF81297]
synaptic density / oligomeric Aβ42-induced synapse loss (hippocampal neurons; oligomeric Aβ42 1 μM, 24 hours, 1.5 μM MK0677, 2 μM SKF81297, or in combination): failed to alleviate
synaptic density, agonist alone (hippocampal neurons; without oligomeric Aβ42, MK0677 at doses greater than 1.5 μM, SKF81297 2 μM): increased synaptic density
Ghsr1α/Drd1 complex formation (Ghsr1α/Drd1 complex): not the agonists alone
Aβ/Ghsr1α complex formation (Aβ/Ghsr1α complex): not MK0677 or SKF81297 alone
stimulus-evoked hippocampal LTP in 5×FAD slices ([1]; slices from 4 month-old 5×FAD mice): no effect
hippocampal LTP in non-Tg slices ([1]; slices from 4 month-old non-Tg mice): no effect

Molecule: CN1N=C2CCN(C(=O)[C@@H](COCc3ccccc3)NC(=O)C(C)(C)N)C[C@@]2(Cc2ccccc2)C1=O [capromorelin]
Aβ-induced synaptic loss / synaptic density (hippocampal neurons; oligomeric Aβ42 1 μM, 24 hours): could ameliorate
synaptogenic effect, agonist alone (hippocampal neurons; without oligomeric Aβ42): comparable synaptogenic effect with ghrelin

Molecule: CC(C)(N)C(=O)N[C@@H](Cc1c[nH]cn1)C(=O)N[C@H](Cc1ccc2ccccc2c1)C(=O)N[C@H](Cc1ccccc1)C(=O)N[C@@H](CCCCN)C(N)=O [ipamorelin] (H-[Aib]H[d2Nal][dF]K-NH2)
Aβ-induced synaptic loss / synaptic density (hippocampal neurons; oligomeric Aβ42 1 μM, 24 hours): could ameliorate
synaptogenic effect, agonist alone (hippocampal neurons; without oligomeric Aβ42): comparable synaptogenic effect with ghrelin

Molecule: Oc1cc2c(cc1O)[C@H]1c3ccccc3CN[C@@H]1CC2 (racemic) [dihydrexidine]
binding to DRD1 / DRD2 (DRD1 [2]): much weaker binding affinity

Molecule: Oc1cc2c(cc1O)C(c1ccccc1)CNCC2 (stereo not shown) [SKF38393]
binding to DRD1 / DRD2 (DRD1 [2]): selectively bind DRD1

impact on FRET ratio in vehicle-treated cells (Ghsr1α; no agonist): no impact
effect on agonist-induced Ghsr1α activation (Ghsr1α; then MK0677 50 μM): suppressed
impact on agonist-induced Drd1 activation (Drd1 [3]): no impact
interaction between Ghsr1α and Drd1 (Duolink PLA) (Ghsr1α/Drd1): suppressed
interaction with Ghsr1α mutant devoid of aa42-116 (Ghsr1α Δaa42-116): no interaction
Aβ/DRD1 complexes (Drd1 [4]): not observed
Molecule: oligomeric Aβ42: Aβ42 peptide (GenicBio) incubated at 4° C. for 24 hours to prepare oligomers

Molecule: ghrelin: the natural ligand of GHSR1α (GSSFLSPEHQRVQQRKESKKPPAKLQPR; ends and bridges not checked; UniProt Q9UBU3 24-51, looked up)
hippocampal Aβ load in 5×FAD mice (5×FAD mice): did not affect hippocampal Aβ load
